Test results from patent US11377501B2, “Peptide having high affinity for PD-L1 protein and use thereof” (priority 2017, dated 2022).
Entries after “also recorded” stand apart in the source; their conditions may differ. Where no end group is shown, it is not given here.

What was measured:
mouse tumor = assay: Effect of PPLC peptide on tumor volume and survival in mouse tumor model; type: in vivo; settings: subcutaneous tumors in female Balb/c mice
Experimental: (§1) The experimental animals were divided into two groups: PBS group and PPLC group. Tumors were injected subcutaneously into 6 weeks old female Balb/c mice. Two weeks later, when the tumor size reached 100 mm^3, PPLC drug treatment was performed. The size of the mouse tumor was measured daily and the change was recorded.
as §1, with “into” for “into 6 weeks old”

[1] = target: T1, recombinant human PD-L1 protein expressed on CHO cell surface (Homo sapiens, UniProt Q9NZQ7); assay: Binding of FITC-labeled PPLC peptide to PD-L1 expressed on CHO cell surface (flow cytometry, fluorescence confocal); type: cell-based; settings: CHO cells transfected with human PD-L1, FITC-labeled peptide, flow cytometry and confocal
T1 construct: expressed in transfected cells; host or cells: CHO cell line
Experimental: (§2) The recombinant plasmid expressing recombinant human PD-L1 protein was transfected into CHO cell line and incubated for 36 hours. After incubation, anti-PD-L1 monoclonal antibody or PPLC peptide labeled with FITC was added and incubated at 4° C. for 30 minutes. After incubation, flow cytometry was performed (FIG. 3). After transfection of the plasmid, the cells were further cultured for 36 hours, and then the PPLC peptide labeled with FITC was added and incubated at 37° C. for 30 minutes. After incubation, fluorescence confocal detection was performed (FIG. 4).
as §2, with “added,” for “added”, “performed.” for “performed (FIG. 3).”, “performed.” for “performed (FIG. 4).”

PD-1/PD-L1 = PD-1/PD-L1 (Homo sapiens, UniProt Q9NZQ7); assay: Competitive binding ELISA between PPLC peptide and PD-1 to PD-L1 protein; settings: 2 μg/ml coated PD-L1, 1 μg/ml PD-1 protein
Experimental: (§3) A 96-well ELISA plate was coated with 2 μg/ml PD-L1 protein at 4° C. overnight. Different concentrations of PPLC peptide and 1 μg/ml PD-1 protein were mixed and incubated together. After incubation, rabbit anti-human PD-1 monoclonal antibody was added as primary antibody, and then HRP-conjugated goat anti-rabbit IgG monoclonal antibody was added as secondary antibody. After ABTS color development, the OD value at 410 nm was measured using a M5 microplate reader, and GraphPad Prism 6 was used for plotting and analysis.
as §3, with “1 μg/ml of PD-1 protein” for “1 μg/ml PD-1 protein”

T1 sequence (Q9NZQ7 19-290): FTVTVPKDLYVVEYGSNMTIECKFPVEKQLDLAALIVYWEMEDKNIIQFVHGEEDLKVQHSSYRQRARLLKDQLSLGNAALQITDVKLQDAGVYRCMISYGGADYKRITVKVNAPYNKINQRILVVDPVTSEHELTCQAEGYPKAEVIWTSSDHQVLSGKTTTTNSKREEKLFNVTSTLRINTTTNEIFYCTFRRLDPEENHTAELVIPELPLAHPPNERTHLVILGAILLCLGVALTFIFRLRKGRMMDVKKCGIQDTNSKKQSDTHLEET
Chain of PD-1/PD-L1 (Q9NZQ7 19-238 limits assumed): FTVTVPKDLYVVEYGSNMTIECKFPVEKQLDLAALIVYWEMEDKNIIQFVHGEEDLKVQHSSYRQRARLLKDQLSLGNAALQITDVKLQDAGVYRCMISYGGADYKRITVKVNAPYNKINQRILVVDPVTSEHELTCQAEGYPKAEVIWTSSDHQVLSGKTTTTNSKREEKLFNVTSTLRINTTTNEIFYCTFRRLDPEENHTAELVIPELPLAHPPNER

VSVSHFQKVWVV [PPLC]
growth rate of mouse tumor / tumor size (mouse tumor; treatment from tumor size 100 mm^3, versus PBS group): can significantly reduce the growth rate of mouse tumor; also recorded: significantly smaller than that of the control group | survival time of mice (mouse tumor; versus PBS group): prolong the survival time of mice | binding to PD-L1 protein expressed on the cell surface [1]: can efficiently bind to the PD-L1 protein expressed on the cell surface; also recorded: has a high affinity for PD-L1 expressed on the surface of CHO cells | blocking of the binding of PD-1/PD-L1 (PD-1/PD-L1): can effectively block the binding of PD-1/PD-L1
